# Test results published in patent US8940724B2, “Quinoline derivitives and their uses” (Amgen Inc., priority 2009, dated 2015).
# Biological target: T1, PI3Kδ (Homo sapiens, UniProt O00329)
# T1 construct: Full length p110 subunits of PI3k α, β and δ, N-terminally labeled with polyHis tag; polyHis (N); made in house; host or cells: Sf9 insect cells (baculovirus)
# Experiment: PI3Kδ Alphascreen assay
# Format: biochemical
# T1 sequence (O00329 whole entry): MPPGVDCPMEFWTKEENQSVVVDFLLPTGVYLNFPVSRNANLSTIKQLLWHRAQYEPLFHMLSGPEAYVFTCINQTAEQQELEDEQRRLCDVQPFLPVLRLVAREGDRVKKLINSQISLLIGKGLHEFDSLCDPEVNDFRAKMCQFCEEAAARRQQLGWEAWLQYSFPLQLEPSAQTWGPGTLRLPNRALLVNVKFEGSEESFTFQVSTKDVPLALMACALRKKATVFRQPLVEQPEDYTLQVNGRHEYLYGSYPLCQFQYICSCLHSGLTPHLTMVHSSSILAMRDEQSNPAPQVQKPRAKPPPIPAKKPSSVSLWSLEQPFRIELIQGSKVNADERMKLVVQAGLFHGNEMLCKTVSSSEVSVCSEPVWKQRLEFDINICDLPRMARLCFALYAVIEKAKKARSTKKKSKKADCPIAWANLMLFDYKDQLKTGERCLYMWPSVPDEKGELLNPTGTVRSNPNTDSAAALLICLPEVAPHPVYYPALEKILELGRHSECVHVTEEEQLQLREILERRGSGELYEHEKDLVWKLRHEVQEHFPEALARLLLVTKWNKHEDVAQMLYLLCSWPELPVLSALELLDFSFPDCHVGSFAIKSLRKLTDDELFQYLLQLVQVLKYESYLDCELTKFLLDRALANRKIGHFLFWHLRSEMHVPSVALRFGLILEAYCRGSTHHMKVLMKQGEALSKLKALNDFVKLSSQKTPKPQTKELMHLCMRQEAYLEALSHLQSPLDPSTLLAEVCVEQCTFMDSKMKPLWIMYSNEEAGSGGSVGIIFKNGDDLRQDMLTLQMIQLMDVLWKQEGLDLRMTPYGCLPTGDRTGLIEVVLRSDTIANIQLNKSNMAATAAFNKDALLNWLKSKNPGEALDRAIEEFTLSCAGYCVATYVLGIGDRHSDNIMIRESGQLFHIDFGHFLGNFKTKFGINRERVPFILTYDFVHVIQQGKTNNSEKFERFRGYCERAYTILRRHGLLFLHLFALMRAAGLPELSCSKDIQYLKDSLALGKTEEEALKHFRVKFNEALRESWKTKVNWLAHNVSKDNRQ
# T1 sequence (P27986 whole entry partner): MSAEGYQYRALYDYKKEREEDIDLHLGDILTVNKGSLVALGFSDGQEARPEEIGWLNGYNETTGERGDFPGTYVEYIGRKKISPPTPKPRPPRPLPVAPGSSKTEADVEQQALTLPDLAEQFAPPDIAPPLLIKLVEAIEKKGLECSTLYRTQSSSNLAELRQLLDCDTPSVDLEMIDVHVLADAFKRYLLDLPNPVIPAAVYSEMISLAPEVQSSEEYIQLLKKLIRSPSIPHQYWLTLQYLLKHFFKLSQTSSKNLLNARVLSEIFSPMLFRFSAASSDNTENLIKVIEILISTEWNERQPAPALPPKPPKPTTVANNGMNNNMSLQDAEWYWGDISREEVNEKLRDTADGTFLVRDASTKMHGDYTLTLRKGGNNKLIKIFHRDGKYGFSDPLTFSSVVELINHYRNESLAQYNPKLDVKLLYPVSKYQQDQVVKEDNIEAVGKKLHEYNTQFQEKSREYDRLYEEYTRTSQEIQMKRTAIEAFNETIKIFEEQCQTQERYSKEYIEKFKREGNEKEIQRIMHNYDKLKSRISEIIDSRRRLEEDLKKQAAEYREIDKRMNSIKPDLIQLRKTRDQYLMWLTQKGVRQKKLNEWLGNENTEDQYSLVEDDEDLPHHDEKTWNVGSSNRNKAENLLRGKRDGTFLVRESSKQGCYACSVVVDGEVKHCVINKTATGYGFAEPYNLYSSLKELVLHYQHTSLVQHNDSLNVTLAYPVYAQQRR
row,Compound,Ki [nM]
1,"Cc1c(-c2ccccn2)nc2ncccc2c1Nc1cncc(N2CCOCC2)c1 [3-methyl-N-(5-(4-morpholinyl)-3-pyridinyl)-2-(2-pyridinyl)-1,8-naphthyridin-4-amine]",716
2,"Cc1c(-c2ccccn2)nc2cc(F)cc(F)c2c1Nc1cc(N2CCOCC2)cnc1-c1ccc(C#N)cc1 [4-(3-((5,7-difluoro-3-methyl-2-(2-pyridinyl)-4-quinolinyl)-amino)-5-(4-morpholinyl)-2-pyridinyl)benzonitrile]",5.51
3,"Cc1c(-c2ccccn2)nc2cc(F)cc(F)c2c1Nc1cc(N2CCOCC2)cnc1-c1ccc(O)cc1 [4-(3-((5,7-difluoro-3-methyl-2-(2-pyridinyl)-4-quinolinyl)-amino)-5-(4-morpholinyl)-2-pyridinyl)phenol]",0.285
4,"Cc1c(N2CCN(C(C)C)C(=O)C2)nc2cc(F)cc(F)c2c1Nc1cc(N2CCOCC2)cnc1N1CCOCC1 [4-(4-((2,5-di-4-morpholinyl-3-pyridinyl)amino)-5,7-difluoro-3-methyl-2-quinolinyl)-1-(1-methylethyl)-2-piperazinone]",2.38
5,"CCN1CCN(c2nc3cc(F)cc(F)c3c(Nc3cc(N4CCOCC4)cnc3N3CCOCC3)c2C)CC1=O [4-(4-((2,5-di-4-morpholinyl-3-pyridinyl)amino)-5,7-difluoro-3-methyl-2-quinolinyl)-1-ethyl-2-piperazinone]",1.29
6,"CCCN1CCN(c2nc3cc(F)cc(F)c3c(Nc3cc(N4CCOCC4)cnc3N3CCOCC3)c2C)CC1=O [4-(4-((2,5-di-4-morpholinyl-3-pyridinyl)amino)-5,7-difluoro-3-methyl-2-quinolinyl)-1-propyl-2-piperazinone]",1.83
7,"Cc1c(N2CCN(C(=O)N(C)C)CC2)nc2cc(F)cc(F)c2c1N(C(=O)N(C)C)c1cncc(N2CCOCC2)c1 [4-(4-((dimethylcarbamoyl)(5-(4-morpholinyl)-3-pyridinyl)-amino)-5,7-difluoro-3-methyl-2-quinolinyl)-N,N-dimethyl-1-piperazinecarboxamide]",81.6
8,"Cc1c(N2CCN(C(C)C)C(=O)C2)nc2cc(F)cc(F)c2c1Nc1cncc(N2CCOCC2)c1 [4-(5,7-difluoro-3-methyl-4-((5-(4-morpholinyl)-3-pyridinyl)-amino)-2-quinolinyl)-1-(1-methylethyl)-2-piperazinone]",24
9,"CCN1CCN(c2nc3cc(F)cc(F)c3c(Nc3cncc(N4CCOCC4)c3)c2C)CC1=O [4-(5,7-difluoro-3-methyl-4-((5-(4-morpholinyl)-3-pyridinyl)-amino)-2-quinolinyl)-1-ethyl-2-piperazinone]",13.2
10,"CCCN1CCN(c2nc3cc(F)cc(F)c3c(Nc3cncc(N4CCOCC4)c3)c2C)CC1=O [4-(5,7-difluoro-3-methyl-4-((5-(4-morpholinyl)-3-pyridinyl)-amino)-2-quinolinyl)-1-propyl-2-piperazinone]",9.18
11,"Cc1c(N2CCN(C(=O)N(C)C)CC2)nc2cc(F)cc(F)c2c1Nc1cncc(N2CCOCC2)c1 [4-(5,7-difluoro-3-methyl-4-((5-(4-morpholinyl)-3-pyridinyl)-amino)-2-quinolinyl)-N,N-dimethyl-1-piperazinecarboxamide]",72.5
12,"Cc1c(N2CCN(C(=O)NC(C)C)CC2)nc2cc(F)cc(F)c2c1Nc1cncc(N2CCOCC2)c1 [4-(5,7-difluoro-3-methyl-4-((5-(4-morpholinyl)-3-pyridinyl)-amino)-2-quinolinyl)-N-(1-methylethyl)-1-piperazinecarboxamide]",50.6
13,"CCNC(=O)N1CCN(c2nc3cc(F)cc(F)c3c(Nc3cncc(N4CCOCC4)c3)c2C)CC1 [4-(5,7-difluoro-3-methyl-4-((5-(4-morpholinyl)-3-pyridinyl)-amino)-2-quinolinyl)-N-ethyl-1-piperazinecarboxamide]",24.8
14,"CNC(=O)N1CCN(c2nc3cc(F)cc(F)c3c(Nc3cncc(N4CCOCC4)c3)c2C)CC1 [4-(5,7-difluoro-3-methyl-4-((5-(4-morpholinyl)-3-pyridinyl)-amino)-2-quinolinyl)-N-methyl-1-piperazinecarboxamide]",16.5
15,"Cc1c(-c2ccccn2)nc2c(C#N)cccc2c1Nc1cc(N2CCOCC2)cnc1N1CCOCC1 [4-((2,5-di-4-morpholinyl-3-pyridinyl)amino)-3-methyl-2-(2-pyridinyl)-8-quinolinecarbonitrile]",54.4
16,"Cc1c(-c2ccccn2)nc2cc(F)cc(F)c2c1Nc1ccc(C#N)c(N2CCOCC2)c1 [4-((5,7-difluoro-3-methyl-2-(2-pyridinyl)-4-quinolinyl)amino)-2-(4-morpholinyl)benzonitrile]",484
17,"COc1cncc(-c2cc(C#N)c(N3CCOCC3)cc2Nc2c(C)c(-c3ccccn3)nc3cc(F)cc(F)c23)c1 [4-((5,7-difluoro-3-methyl-2-(2-pyridinyl)-4-quinolinyl)amino)-5-(5-methoxy-3-pyridinyl)-2-(4-morpholinyl)benzonitrile]",7.87
18,"COc1cncc(-c2ncc(N3CCOCC3)cc2Nc2c(C)c(-c3cc(C)ccn3)nc3c(C#N)cccc23)c1 [4-((5′-methoxy-5-(4-morpholinyl)-2,3′-bipyridin-3-yl)amino)-3-methyl-2-(4-methyl-2-pyridinyl)-8-quinolinecarbonitrile]",233

row,Compound,Ki [nM]
1,"COc1cc(-c2nc3cc(F)cc(F)c3c(Nc3cncc(N4CCOCC4)c3)c2C)ccn1 [5,7-difluoro-2-(2-methoxy-4-pyridinyl)-3-methyl-N-(5-(4-morpholinyl)-3-pyridinyl)-4-quinolinamine]",150
2,"Cc1c(N2CCN(C(=O)c3ncc[nH]3)CC2)nc2cc(F)cc(F)c2c1Nc1cncc(N2CCOCC2)c1 [5,7-difluoro-2-(4-(1H-imidazol-2-ylcarbonyl)-1-piperazinyl)-3-methyl-N-(5-(4-morpholinyl)-3-pyridinyl)-4-quinolinamine]",54.4
3,"Cc1c(N2CCN(S(=O)(=O)c3ccccc3F)CC2)nc2cc(F)cc(F)c2c1Nc1cncc(N2CCOCC2)c1 [5,7-difluoro-2-(4-((2-fluorophenyl)sulfonyl)-1-piperazinyl)-3-methyl-N-(5-(4-morpholinyl)-3-pyridinyl)-4-quinolinamine]",66.4
4,"Cc1c(N2CCN(S(=O)(=O)c3cccc(F)c3)CC2)nc2cc(F)cc(F)c2c1Nc1cncc(N2CCOCC2)c1 [5,7-difluoro-2-(4-((3-fluorophenyl)sulfonyl)-1-piperazinyl)-3-methyl-N-(5-(4-morpholinyl)-3-pyridinyl)-4-quinolinamine]",61.1
5,"Cc1c(-c2cc(F)ccc2S(C)(=O)=O)nc2cc(F)cc(F)c2c1Nc1cncc(N2CCOCC2)c1 [5,7-difluoro-2-(5-fluoro-2-(methylsulfonyl)phenyl)-3-methyl-N-(5-(4-morpholinyl)-3-pyridinyl)-4-quinolinamine]",2.91
6,"COc1cncc(-c2nc3cc(F)cc(F)c3c(Nc3cncc(N4CCOCC4)c3)c2C)c1 [5,7-difluoro-2-(5-methoxy-3-pyridinyl)-3-methyl-N-(5-(4-morpholinyl)-3-pyridinyl)-4-quinolinamine]",37.4
7,"Cc1c(-c2ccccc2[S@+](C)[O-])nc2cc(F)cc(F)c2c1Nc1cncc(N2CCOCC2)c1 [5,7-difluoro-3-methyl-2-(2-((S)-methylsulfinyl)phenyl)-N-(5-(4-morpholinyl)-3-pyridinyl)-4-quinolinamine]",3.89
8,"Cc1c(-c2cc(OC(F)(F)F)ccc2S(C)(=O)=O)nc2cc(F)cc(F)c2c1Nc1cncc(N2CCOCC2)c1 [5,7-difluoro-3-methyl-2-(2-(methylsulfonyl)-5-(trifluoromethoxy)phenyl)-N-(5-(4-morpholinyl)-3-pyridinyl)-4-quinolinamine]",4.18
9,"Cc1c(-c2ccccc2S(C)(=O)=O)nc2cc(F)cc(F)c2c1Nc1cncc(N2CCOCC2)c1 [5,7-difluoro-3-methyl-2-(2-(methylsulfonyl)phenyl)-N-(5-(4-morpholinyl)-3-pyridinyl)-4-quinolinamine]",3.24
10,"Cc1c(-c2ccccn2)nc2cc(F)cc(F)c2c1Nc1cncc(C2CCOCC2)c1 [5,7-difluoro-3-methyl-2-(2-pyridinyl)-N-(5-(tetrahydro-2H-pyran-4-yl)-3-pyridinyl)-4-quinolinamine]",209
11,"Cc1c(N2CCN(C(C)C)CC2)nc2cc(F)cc(F)c2c1Nc1cncc(N2CCOCC2)c1 [5,7-difluoro-3-methyl-2-(4-(1-methylethyl)-1-piperazinyl)-N-(5-(4-morpholinyl)-3-pyridinyl)-4-quinolinamine]",11.3
12,"Cc1c(N2CCN(C(=O)C(C)C)CC2)nc2cc(F)cc(F)c2c1Nc1cncc(N2CCOCC2)c1 [5,7-difluoro-3-methyl-2-(4-(2-methylpropanoyl)-1-piperazinyl)-N-(5-(4-morpholinyl)-3-pyridinyl)-4-quinolinamine]",33.3
13,"Cc1c(N2CCN(S(=O)(=O)C(C)C)CC2)nc2cc(F)cc(F)c2c1Nc1cncc(N2CCOCC2)c1 [5,7-difluoro-3-methyl-2-(4-((1-methylethyl)sulfonyl)-1-piperazinyl)-N-(5-(4-morpholinyl)-3-pyridinyl)-4-quinolinamine]",53.4
14,"Cc1c(N2CCN(S(=O)(=O)CC(C)C)CC2)nc2cc(F)cc(F)c2c1Nc1cncc(N2CCOCC2)c1 [5,7-difluoro-3-methyl-2-(4-((2-methylpropyl)sulfonyl)-1-piperazinyl)-N-(5-(4-morpholinyl)-3-pyridinyl)-4-quinolinamine]",71.3
15,"Cc1ccc(C(=O)N2CCN(c3nc4cc(F)cc(F)c4c(Nc4cncc(N5CCOCC5)c4)c3C)CC2)o1 [5,7-difluoro-3-methyl-2-(4-((5-methyl-2-furanyl)carbonyl)-1-piperazinyl)-N-(5-(4-morpholinyl)-3-pyridinyl)-4-quinolinamine]",78.2
16,"Cc1ccc(C(=O)N2CCN(c3nc4cc(F)cc(F)c4c(Nc4cncc(N5CCOCC5)c4)c3C)CC2)cn1 [5,7-difluoro-3-methyl-2-(4-((6-methyl-3-pyridinyl)carbonyl)-1-piperazinyl)-N-(5-(4-morpholinyl)-3-pyridinyl)-4-quinolinamine]",180
17,"Cc1c(N2CCN(S(C)(=O)=O)CC2)nc2cc(F)cc(F)c2c1Nc1cncc(N2CCOCC2)c1 [5,7-difluoro-3-methyl-2-(4-(methylsulfonyl)-1-piperazinyl)-N-(5-(4-morpholinyl)-3-pyridinyl)-4-quinolinamine]",45.5
